The target in this assay is T1, CDK7/CycH/MAT1 (Homo sapiens, UniProt P50613).
T1 construct: purchased ProQinase 0366-0360-4
Nature of the assay: Kinase ADP-Glo Assay. In kind it is biochemical. The settings on record: ADP-Glo assay (compounds without *), ATP 1 μM, 60 minutes at room temperature. As to the method:
Assay Buffer: 50 mM HEPES, 3 mM MgCl2, 3 mM MnCl2, 1 mM DTT, 3 μM Na3VO4, pH 7.5
Substrate RB: CTF Peptide (ProQinase #: 0040-0000-6)
ADP-Glo™ Assay (Promega #: V9101): ATP: 10 mM, ADP-Glo™ Reagent, Kinase Detection Reagent
384-well white assay plates
A ten point serial dilution of compound was prepared at 5× concentration in assay buffer with the final assay concentrations starting at 30 μM, 10 μM, 3 μM, 1 μM . . . 0 μM. Enzyme, substrate, and ATP were used at 40 ng, 200 ng (or 400 ng)^+ and 1 μM, respectively. The assay plate was set up by mixing the components in a total reaction volume of 10 μL per well. The plate was centrifuged gently for 10 seconds and incubated at room temperature (RT) for 60 minutes in the dark. The ADP-Glo Reagent and kinase detection reagent were added and incubated as recommended. The reaction was quantified by measuring luminescence on the Perkin Elmer Envision plate reader. Data was analyzed using Graphpad Prism 7 software. *With CDK2 enzyme, 400 ng of substrate was used.
(In ADP-Glo the light output rises with the ADP produced.)

Molecules are shown by their SMILES. Where a name gives a salt, the structure may show the parent alone.

T1 sequence (P50613 whole entry): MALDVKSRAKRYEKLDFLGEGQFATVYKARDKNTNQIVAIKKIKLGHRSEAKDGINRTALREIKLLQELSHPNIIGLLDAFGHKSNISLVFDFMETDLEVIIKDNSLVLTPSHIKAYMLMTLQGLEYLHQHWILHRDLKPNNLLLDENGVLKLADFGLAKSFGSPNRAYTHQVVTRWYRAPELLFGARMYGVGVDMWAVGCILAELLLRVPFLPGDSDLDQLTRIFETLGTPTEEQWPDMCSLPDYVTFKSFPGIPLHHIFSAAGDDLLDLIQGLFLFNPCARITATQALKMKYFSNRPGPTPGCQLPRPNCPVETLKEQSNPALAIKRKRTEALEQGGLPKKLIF
T1 sequence (P51946 whole entry partner): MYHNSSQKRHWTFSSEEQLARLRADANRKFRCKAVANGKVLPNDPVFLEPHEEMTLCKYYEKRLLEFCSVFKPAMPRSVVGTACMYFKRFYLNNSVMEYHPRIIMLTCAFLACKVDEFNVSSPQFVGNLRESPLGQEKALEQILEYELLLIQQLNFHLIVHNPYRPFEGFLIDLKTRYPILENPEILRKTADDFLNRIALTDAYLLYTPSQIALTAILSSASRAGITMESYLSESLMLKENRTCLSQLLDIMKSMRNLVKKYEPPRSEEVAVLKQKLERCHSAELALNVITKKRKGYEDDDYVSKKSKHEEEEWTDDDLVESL
T1 sequence (P51948 whole entry partner): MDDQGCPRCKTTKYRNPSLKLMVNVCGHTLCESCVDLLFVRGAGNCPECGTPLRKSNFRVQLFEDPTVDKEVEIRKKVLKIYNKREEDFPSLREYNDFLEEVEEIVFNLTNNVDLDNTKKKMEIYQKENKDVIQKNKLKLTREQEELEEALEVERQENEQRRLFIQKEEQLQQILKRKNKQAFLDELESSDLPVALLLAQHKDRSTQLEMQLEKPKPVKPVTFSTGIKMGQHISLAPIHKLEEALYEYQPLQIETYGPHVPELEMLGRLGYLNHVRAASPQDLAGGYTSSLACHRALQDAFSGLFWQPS

Broadly, the IC50 is the concentration that gives 50% inhibition. A higher IC50 goes with lower potency. In the case of `O[C@@H]1CNCC[C@H]1COc1cc(Nc2cccc(F)c2)n2ncc(C3CC3)c2n1` (relative stereo) [Compound I-53, trans-4-((3-cyclopropyl-7-((3-fluorophenyl)amino)pyrazolo [1,5-a]pyrimidin-5-yl)oxymethyl)piperidin-3-ol], the IC50 is under 100 nM.
To `Cc1cc(F)cc(Nc2cc(O[C@@H]3CNC[C@@H](O)C3)nc3c(C4CCC4)cnn23)c1` (relative stereo) [Compound I-57, trans-5-((3-cyclobutyl-7-((3-fluoro-5-methylphenyl)amino)pyrazolo [1,5-a]pyrimidin-5-yl)oxy)piperidin-3-ol] belongs under 100 nM; to `Fc1cccc(Nc2cc(O[C@H]3CCCNC3)nc3c(C4CC4)cnn23)c1` [Compound I-4, (S)-3-cyclopropyl-N-(3-fluorophenyl)-5-((piperidin-3-yl)oxy)pyrazolo[1,5-a]pyrimidin-7-amine], under 100 nM; to `N[C@H]1CC[C@H](Nc2cc(Nc3cccc(F)c3)n3ncc(C4CC4)c3n2)CC1` [Compound I-6, Trans-N^5-(4-aminocyclohexyl)-3-cyclopropyl-N^7-(3-fluorophenyl)pyrazolo[1,5-a]pyrimidine-5,7-diamine], 100 to 1000 nM.
The figure for `N[C@H]1CC[C@@H](Nc2cc(Nc3cccc(F)c3)n3ncc(C4CC4)c3n2)CC1` [Compound I-7, Cis-N^5-(4-aminocyclohexyl)-3-cyclopropyl-N^7-(3-fluorophenyl)pyrazolo[1,5-a]pyrimidine-5,7-diamine] is 100 to 1000 nM.
For the compound `FC(F)(F)c1cccc(Nc2cc(N[C@H]3CCCNC3)nc3c(C4CC4)cnn23)c1` [Compound I-8], the IC50 is under 100 nM.
To `N#Cc1cccc(Nc2cc(N[C@H]3CCCNC3)nc3c(C4CC4)cnn23)c1` [Compound I-9, (S)-3-((3-cyclopropyl-5-((piperidin-3-yl)amino)pyrazolo[1,5-a]pyrimidin-7-yl)amino)benzonitrile] belongs under 100 nM; to `FC(F)(F)Cc1cccc(Nc2cc(N[C@H]3CCCNC3)nc3c(C4CC4)cnn23)c1` [Compound I-10], 100 to 1000 nM.
The figure for `O[C@@H]1CNCC[C@H]1CNc1cc(Nc2cccc(F)c2)n2ncc(C3CC3)c2n1` [Compound I-11, (3S,4S)-4-(((3-cyclopropyl-7-((3-fluorophenyl)amino)pyrazolo [1,5-a]pyrimidin-5-yl)amino)methyl)piperidin-3-ol] is under 100 nM; for `O[C@@H]1CNCC[C@@H]1CNc1cc(Nc2cccc(F)c2)n2ncc(C3CC3)c2n1` [Compound I-12, (3S,4R)-4-((3-cyclopropyl-7-((3-fluorophenyl)amino)pyrazolo [1,5-a]pyrimidin-5-yl)aminomethyl)piperidin-3-ol] it is 100 to 1000 nM.
The figure for `Fc1cccc(Nc2cc(NC[C@H]3CCCNC3)nc3c(C4CC4)cnn23)c1` [Compound I-13] is over 1000 nM; for `Fc1cccc(Nc2cc(OC[C@H]3CCCNC3)nc3c(C4CC4)cnn23)c1` [Compound I-14] it is 100 to 1000 nM; for `N#Cc1cccc(Nc2cc(NC[C@@H]3CCNC[C@H]3O)nc3c(C4CC4)cnn23)c1` [Compound I-15, (3S,4S)-3-((3-cyclopropyl-5-(((3-hydroxy)piperidin-4-yl)methylamino)pyrazolo[1,5-a]pyrimidin-7-yl)amino)benzonitrile] it is 100 to 1000 nM.
`N#Cc1cc(F)cc(Nc2cc(NC[C@@H]3CCNC[C@H]3O)nc3c(C4CC4)cnn23)c1` [Compound I-16, (3S,4S)-3-((3-cyclopropyl-5-(((3-hydroxy)piperidin-4-yl)methylamino)pyrazolo[1,5-a]pyrimidin-7-yl)amino)-5-fluorobenzonitrile trifluoroacetate salt] gave an IC50 of over 1000 nM.
In turn, `O[C@@H]1CNCC[C@H]1CNc1cc(Nc2cccc(F)c2)n2ncc(C3CC3)c2n1` [Compound I-17] returned an IC50 of 100 to 1000 nM.
To `Clc1cccc(Nc2cc(N[C@H]3CCCNC3)nc3c(C4CC4)cnn23)c1` [Compound I-18] belongs under 100 nM; to `O[C@H]1CCNC[C@@H]1Nc1cc(Nc2cccc(F)c2)n2ncc(C3CC3)c2n1` [Compound I-21, (3S,4S)-3-((3-cyclopropyl-7-((3-fluorophenyl)amino)pyrazolo [1,5-a]pyrimidin-5-yl)amino)piperidin-4-ol hydrochloride], over 1000 nM; to `O[C@@H]1CNC[C@@H](Nc2cc(Nc3cccc(F)c3)n3ncc(C4CC4)c3n2)C1` [Compound I-22, hydrochloride], over 1000 nM.
The figure for `N#Cc1cnn2c(NCc3cccc(F)c3)cc(N[C@H]3CCCNC3)nc12` [Compound I-29, (S)-7-((3-fluorobenzyl)amino)-5-((piperidin-3-yl)amino)pyrazolo[1,5-a]pyrimidine-3-carbonitrile] is 100 to 1000 nM; for `Cc1cccc(CNc2cc(N[C@H]3CCCNC3)nc3c(C#N)cnn23)c1` [Compound I-30, (S)-7-((3-methylbenzyl)amino)-5-((piperidin-3-yl)amino)pyrazolo[1,5-a]pyrimidine-3-carbonitrile] it is 100 to 1000 nM.
In turn, `O[C@H]1CNCC[C@@H]1CNc1cc(Nc2cccc(F)c2)n2ncc(C3CC3)c2n1` [Compound I-45, (3R,4R)-4-((3-cyclopropyl-7-((3-fluorophenyl)amino)pyrazolo [1,5-a]pyrimidin-5-yl)aminomethyl)piperidin-3-ol] returned an IC50 of under 100 nM.
As to `O[C@H]1CNCC[C@@H]1CNc1cc(Nc2cc(F)cc(F)c2)n2ncc(C3CC3)c2n1` [Compound I-46, (3R,4R)-4-((3-cyclopropyl-7-((3,5-difluorophenyl)amino)pyrazolo[1,5-a]pyrimidin-5-yl)aminomethyl)piperidin-3-ol], the IC50 was in the range of 100 to 1000 nM.
With `O[C@@H]1CNCC[C@H]1CNc1cc(Nc2cc(F)cc(F)c2)n2ncc(C3CC3)c2n1` [Compound I-47, (3S,4S)-4-((3-cyclopropyl-7-((3,5-difluorophenyl)amino)pyrazolo[1,5-a]pyrimidin-5-yl)aminomethyl)piperidin-3-ol], the IC50 was in the range of 100 to 1000 nM.
To `N#Cc1cccc(Nc2cc(NC[C@H]3CCNC[C@@H]3O)nc3c(C4CC4)cnn23)c1` [Compound I-48, (3R,4R)-3-(((3-cyclopropyl-5-(3-hydroxypiperidin-4-yl)methylamino)pyrazolo[1,5-a]pyrimidin-7-yl)amino)benzonitrile] belongs under 100 nM.
Take `Cc1cc(F)cc(Nc2cc(NC[C@H]3CCNC[C@@H]3O)nc3c(C4CC4)cnn23)c1` [Compound I-49, (3R,4R)-4-((3-cyclopropyl-7-((3-fluoro-5-methylphenyl)amino)pyrazolo [1,5-a]pyrimidin-5-yl)aminomethyl)piperidin-3-ol]: the IC50 was under 100 nM.
The figure for `O[C@H]1CNCC[C@@H]1CNc1cc(Nc2cccc(F)c2)n2ncc(C3CCC3)c2n1` [Compound I-50] is under 100 nM; for `CS(=O)(=O)c1cccc(Nc2cc(NC[C@H]3CCNC[C@@H]3O)nc3c(C4CC4)cnn23)c1` [Compound I-51, (3R,4R)-((3-cyclopropyl-7-((3-methylsulfonylphenyl)amino)pyrazolo[1,5-a]pyrimidin-5-yl)aminomethyl)piperidin-3-ol] it is under 100 nM; for `Cc1cc(F)cc(Nc2cc(NC[C@H]3CCNC[C@@H]3O)nc3c(C4CCC4)cnn23)c1` [Compound I-52, (3R,4R)-((3-cyclobutyl-7-((3-fluoro-5-methylphenyl)amino)pyrazolo [1,5-a]pyrimidin-5-yl)aminomethyl)piperidin-3-ol] it is under 100 nM.
With `Cc1cc(C#N)cc(Nc2cc(NC[C@H]3CCNC[C@@H]3O)nc3c(C4CC4)cnn23)c1` [Compound I-54, (3R,4R)-3-((3-cyclopropyl-5-((3-hydroxypiperidin-4-yl)methylamino)pyrazolo[1,5-a]pyrimidin-7-yl)amino)-5-methylbenzonitrile], the IC50 was under 100 nM.
The figure for `N#Cc1cc(F)cc(Nc2cc(NC[C@H]3CCNC[C@@H]3O)nc3c(C4CCC4)cnn23)c1` [Compound I-55, (3R,4R)-3-((3-cyclobutyl-5-((3-hydroxypiperidin-4-yl)methylamino)pyrazolo[1,5-a]pyrimidin-7-yl)amino)-5-fluorobenzonitrile] is under 100 nM; for `Cc1cc(F)cc(Nc2cc(N[C@@H]3CNC[C@@H](O)C3)nc3c(C4CCC4)cnn23)c1` [Compound I-56, (3S,5S)-5-((3-cyclobutyl-7-((3-fluoro-5-methylphenyl)amino)pyrazolo [1,5-a]pyrimidin-5-yl)amino)piperidin-3-ol] it is 100 to 1000 nM; for `Cc1cc(F)cc(Nc2cc(O[C@H]3CCCNC3)nc3c(C4CCC4)cnn23)c1` [Compound I-58, (S)-3-cyclobutyl-N-(3-fluoro-5-methylphenyl)-5-((piperidin-3-yl)oxy)pyrazolo[1,5-a]pyrimidin-7-amine] it is under 100 nM.
To `Cc1cc(F)cc(Nc2cc(NC[C@H]3CCCNC3)nc3c(C4CCC4)cnn23)c1` [Compound I-59, (S)-3-cyclobutyl-N^7-(3-fluoro-5-methylphenyl)-N^5-((piperidin-3-yl)methyl)pyrazolo[1,5-a]pyrimidine-5,7-diamine] belongs over 1000 nM.
For `N#Cc1cc(F)cc(Nc2cc(OC[C@H]3CCCNC3)nc3c(C4CCC4)cnn23)c1` [Compound I-60, (S)-3-((3-cyclobutyl-5-((piperidin-3-yl)methoxy)pyrazolo[1,5-a]pyrimidin-7-yl)amino)-5-fluorobenzonitrile], the IC50 is over 1000 nM.
